The subject of the assay is CD2F1 mice, L1210 leukemia ip, survival T/C. Kind of assay: NCI In Vivo Anticancer Drug Screen. Data for tumor model L1210 Leukemia (intraperitoneal) in CD2F1 (CDF1) mice. As to conditions: higher = longer survival. In a few lines:
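Activity against a transplanted murine tumor was judged by comparing the compound group with a vehicle group. The outcome in the treated animals was divided by that in the controls.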

Where [1] appears, read: endpoint: mean survival time, dose: 100.0 mg/kg/injection, schedule: Q04DX003 (ip), vehicle: saline with Tween-80.
Where [2] appears, read: endpoint: mean survival time, dose: 200.0 mg/kg/injection, schedule: Q04DX003 (ip), vehicle: saline with Tween-80.
The mark [3] stands for this setting: endpoint: mean survival time, dose: 400.0 mg/kg/injection, schedule: Q04DX003 (ip), vehicle: saline with Tween-80.
Setting [4] is: endpoint: mean survival time, dose: 100.0 mg/kg/injection, schedule: Q01DX009 (ip), vehicle: saline with Tween-80.
Where [5] appears, read: endpoint: mean survival time, dose: 200.0 mg/kg/injection, schedule: Q01DX009 (ip), vehicle: saline with Tween-80.
The mark [6] stands for this setting: endpoint: mean survival time, dose: 400.0 mg/kg/injection, schedule: Q01DX009 (ip), vehicle: saline with Tween-80.
[7] abbreviates: endpoint: mean survival time, dose: 100.0 mg/kg/injection, schedule: Q01DX001 (ip), vehicle: saline.
[8] abbreviates: endpoint: mean survival time, dose: 200.0 mg/kg/injection, schedule: Q01DX001 (ip), vehicle: saline.

Consider 16 compounds from PubChem BioAssay AID256 (DTP/NCI, 2004).

Where “and” joins values, the source holds several entries; their conditions need not be identical. Equal values may be shown once. Inconclusive results and toxic doses are left out.

Consider `COC(=O)C(CSCc1ccccc1)NC(=O)CCNC(=O)OCc1ccccc1` (configuration not stated), for which the T/C runs as follows: (endpoint: mean survival time, dose: 25.0 mg/kg/injection, schedule: Q01DX009 (ip), vehicle: Klucel (hydroxypropylcellulose) (HPC)) 102 % of control; (endpoint: mean survival time, dose: 50.0 mg/kg/injection, schedule: Q01DX009 (ip), vehicle: Klucel (hydroxypropylcellulose) (HPC)) 102 % of control; (endpoint: mean survival time, dose: 100.0 mg/kg/injection, schedule: Q01DX009 (ip), vehicle: Klucel (hydroxypropylcellulose) (HPC)) 96 % of control; (endpoint: mean survival time, dose: 200.0 mg/kg/injection, schedule: Q01DX009 (ip), vehicle: Klucel (hydroxypropylcellulose) (HPC)) 102 % of control; (endpoint: mean survival time, dose: 400.0 mg/kg/injection, schedule: Q01DX009 (ip), vehicle: Klucel (hydroxypropylcellulose) (HPC)) 86 % of control.
Turning to `O=C(NCCBr)Nc1ccccc1`, the T/C (endpoint: mean survival time, dose: 12.5 mg/kg/injection, schedule: Q04DX002 (ip), vehicle: Klucel (hydroxypropylcellulose) (HPC)) is 92 % of control; the T/C (endpoint: mean survival time, dose: 25.0 mg/kg/injection, schedule: Q04DX002 (ip), vehicle: Klucel (hydroxypropylcellulose) (HPC)) was 92 % of control; the T/C (endpoint: mean survival time, dose: 50.0 mg/kg/injection, schedule: Q04DX002 (ip), vehicle: Klucel (hydroxypropylcellulose) (HPC)) was 96 % of control.
Turning to `COC(=O)C(=O)Cc1cc(OC)cc(=O)o1`, the T/C was 100 % of control under setting [1], 101 % of control under setting [2] and 95 % of control under setting [3].
For `Cc1cccc(NC(=O)NCCBr)c1`, in that order: 100 % of control, 88 % of control and 92 % of control.
Turning to `Cc1ccc(Nc2nc(N)nc3c2ncn3C2OC(CO)C(O)C2O)cc1` (configuration not stated), the T/C (endpoint: mean survival time, dose: 12.5 mg/kg/injection, schedule: Q01DX005 (ip), vehicle: distilled water + Tween-80) was 95 % of control; the T/C (endpoint: mean survival time, dose: 25.0 mg/kg/injection, schedule: Q01DX005 (ip), vehicle: distilled water + Tween-80) was 90 % of control; the T/C (endpoint: mean survival time, dose: 50.0 mg/kg/injection, schedule: Q01DX005 (ip), vehicle: distilled water + Tween-80) is 98 % of control; the T/C (endpoint: mean survival time, dose: 100.0 mg/kg/injection, schedule: Q01DX005 (ip), vehicle: distilled water + Tween-80) is 108 % of control.
For the compound `CC(N)CCC(C)(C)O` (configuration not stated), the T/C is 92 % of control (endpoint: mean survival time, dose: 100.0 mg/kg/injection, schedule: Q04DX003 (ip), vehicle: saline) and 100 % of control (endpoint: mean survival time, dose: 200.0 mg/kg/injection, schedule: Q04DX003 (ip), vehicle: saline).
Take `CCC1(O)C(=O)OCc2c1cc1n(c2=O)Cc2cc3cc(N)ccc3nc2-1` (configuration not stated): the T/C is 243 % of control (endpoint: median survival time, dose: 1.35 mg/kg/injection, schedule: Q01DX005 (ip), vehicle: saline); 188 % of control (endpoint: median survival time, dose: 1.87 mg/kg/injection, schedule: Q01DX005 (ip), vehicle: saline); 158 % of control (endpoint: median survival time, dose: 2.0 mg/kg/injection, schedule: Q04DX002 (ip), vehicle: saline); 243 % of control (endpoint: median survival time, dose: 2.25 mg/kg/injection, schedule: Q01DX005 (ip), vehicle: saline); 271 % of control and 365 % of control (endpoint: median survival time, dose: 3.75 mg/kg/injection, schedule: Q01DX005 (ip), vehicle: saline); 157 % of control and 170 % of control (endpoint: median survival time, dose: 4.0 mg/kg/injection, schedule: Q04DX002 (ip), vehicle: saline). The T/C is, setting by setting: (endpoint: median survival time, dose: 6.25 mg/kg/injection, schedule: Q01DX005 (ip), vehicle: saline) 90 % of control; (endpoint: median survival time, dose: 7.5 mg/kg/injection, schedule: Q01DX005 (ip), vehicle: saline) 123 % of control; (endpoint: median survival time, dose: 8.0 mg/kg/injection, schedule: Q04DX002 (ip), vehicle: saline) 256 % of control and 329 % of control; (endpoint: median survival time, dose: 15.0 mg/kg/injection, schedule: Q01DX005 (ip), vehicle: saline) 100 % of control; (endpoint: median survival time, dose: 16.0 mg/kg/injection, schedule: Q04DX002 (ip), vehicle: saline) 243 % of control and 329 % of control; (endpoint: median survival time, dose: 30.0 mg/kg/injection, schedule: Q01DX005 (ip), vehicle: saline) 88 % of control. Moreover, the T/C (endpoint: median survival time, dose: 32.0 mg/kg/injection, schedule: Q04DX002 (ip), vehicle: saline) is 268 % of control.
In the case of `N#C/C(=C\C1CCC2OCOC2C1)C1CCC([N+](=O)[O-])CC1` (configuration not stated), the T/C is 97 % of control (endpoint: mean survival time, dose: 100.0 mg/kg/injection, schedule: Q04DX002 (ip), vehicle: saline with Tween-80); 87 % of control (endpoint: mean survival time, dose: 200.0 mg/kg/injection, schedule: Q04DX002 (ip), vehicle: saline with Tween-80); 91 % of control (endpoint: mean survival time, dose: 400.0 mg/kg/injection, schedule: Q04DX002 (ip), vehicle: saline with Tween-80).
Turning to `CCCCCCCCCCNC(=O)C[n+]1cccc(C(=O)NCc2ccccc2)c1`, the T/C (endpoint: mean survival time, dose: 12.5 mg/kg/injection, schedule: Q01DX009 (ip), vehicle: saline sonified) was 90 % of control; the T/C (endpoint: mean survival time, dose: 12.5 mg/kg/injection, schedule: Q04DX003 (ip), vehicle: saline sonified) was 104 % of control; the T/C (endpoint: mean survival time, dose: 25.0 mg/kg/injection, schedule: Q04DX003 (ip), vehicle: saline sonified) is 104 % of control; the T/C (endpoint: mean survival time, dose: 50.0 mg/kg/injection, schedule: Q04DX003 (ip), vehicle: saline sonified) was 101 % of control.
Consider `S=C1SCCN1Cc1ccccc1`, for which the T/C under setting [4] was 104 % of control; the T/C under setting [1] is 106 % of control; the T/C under setting [5] is 101 % of control; the T/C under setting [2] is 101 % of control; the T/C under setting [6] is 104 % of control; the T/C under setting [3] was 101 % of control.
In the case of `O=C(OC(CN1CCCCC1)CN1CCCc2ccccc21)C(O)C(O)C(O)(CO)C(=O)OC(CN1CCCCC1)CN1CCCc2ccccc21` (configuration not stated), the T/C reads like this: under setting [1], 95 % of control; under setting [2], 91 % of control.
Consider `O=C1C=CN(C2OC(COC(=O)c3ccccc3)C(O)C2O)C(=O)C1` (configuration not stated), for which the T/C is, setting by setting: (endpoint: median survival time, dose: 67.0 mg/kg/injection, schedule: Q01DX009 (ip), vehicle: saline + Tween-80 + alcohol) 168 % of control; (endpoint: median survival time, dose: 100.0 mg/kg/injection, schedule: Q01DX009 (ip), vehicle: saline + Tween-80 + alcohol) 169 % of control; (endpoint: median survival time, dose: 150.0 mg/kg/injection, schedule: Q01DX009 (ip), vehicle: saline + Tween-80 + alcohol) 165 % of control; (endpoint: median survival time, dose: 225.0 mg/kg/injection, schedule: Q01DX009 (ip), vehicle: saline + Tween-80 + alcohol) 161 % of control.
For the compound `c1ccc(CCc2ccccc2)cc1`, the T/C is, setting by setting: (endpoint: mean survival time, dose: 25.0 mg/kg/injection, schedule: Q04DX003 (ip), vehicle: saline with Tween-80) 100 % of control; (endpoint: mean survival time, dose: 50.0 mg/kg/injection, schedule: Q04DX003 (ip), vehicle: saline with Tween-80) 103 % of control; (endpoint: mean survival time, dose: 100.0 mg/kg/injection, schedule: Q01DX001 (ip), vehicle: saline with Tween-80) 100 % of control; under setting [1], 104 % of control and 105 % of control; (endpoint: mean survival time, dose: 200.0 mg/kg/injection, schedule: Q01DX001 (ip), vehicle: saline with Tween-80) 103 % of control; under setting [2], 101 % of control. For the same compound, the T/C is 91 % of control (endpoint: mean survival time, dose: 400.0 mg/kg/injection, schedule: Q01DX001 (ip), vehicle: saline with Tween-80) and 107 % of control under setting [3].
As for `Clc1ccc2c(Cl)c3c(nc2c1)CCCC3`, the T/C was 100 % of control under setting [7] and 100 % of control under setting [8].
On to `Cc1ccc(NC(=O)c2ccccc2C(=O)O)cc1C`, for which the T/C is 98 % of control under setting [4]; 100 % of control under setting [1]; 95 % of control under setting [5]; 101 % of control under setting [2]; 94 % of control under setting [6]; 103 % of control under setting [3].
Regarding `CC(=O)O.[Tl]`, the T/C is, setting by setting: (endpoint: mean survival time, dose: 20.0 mg/kg/injection, schedule: Q01DX001 (ip), vehicle: saline) 112 % of control; (endpoint: mean survival time, dose: 80.0 mg/kg/injection, schedule: Q01DX001 (ip), vehicle: saline) 97 % of control; under setting [7], 100 % of control; under setting [8], 100 % of control.
